Experimental data as given in patent publication US20200172927A1, “REP[…] […] FOR TREATMENT OF NEURODEGENERATION” (The Trustees of Columbia University in the City of New York, priority 2017, published 2020).

Test system: HIF2a and GLUT1
Experiment: Immunoblot of retinas from B6 mice orally fed VH298 for 3 days
Type: in vivo
Settings: 6-week old B6 mice, oral, VH298 in oil 10, 20, or 50 mg/kg, retinas collected 4 hours after last feeding, vs oil only control
Protocol: 6-week old B6 mice were orally fed for 3 days with VH298 in oil (10, 20, or 50 mg/kg) or oil only for the control group. Each group contained 3 mice. 4 hours after the last feeding, mice retinas were collected and processed immediately for immunoblot. Protein levels of HIF2a, and Glut1 were shown. B-actin was used as loading control.
6-week old B6 mice were orally fed for 3 days with VH298 in oil (10, 20, or 50 mg/kg) or oil only for the control group. Each group contained 3 mice. 4 hours after the last feeding, mice retinas were collected and processed immediately for immunoblot.

Compound: Cc1ncsc1-c1ccc(CNC(=O)[C@@H]2C[C@@H](O)CN2C(=O)[C@@H](NC(=O)C2(C#N)CC2)C(C)(C)C)cc1 [VH298, (2S,4R)-1-((S)-2-(1-cyanocyclopropanecarboxamido)-3,3-dimethylbutanoyl)-4-hydroxy-N-(4-(4-methylthiazol-5-yl)benzyl)pyrrolidine-2-carboxamide]
- Protein level of GLUT1 in retina (immunoblot): dose-dependent increase
- Protein level of HIF2a in retina (immunoblot): dose-dependent increase
